Measurements reported in patent US12539289B2, “Phorbol ester compositions and methods of use for treating or reducing the duration of cytopenia” (BIOSUCCESS BIOTECH CO., LTD., priority 2014, dated 2026).
Several values for one entry are separate records, joined by “and”; a condition that tells them apart may be missing. Identical values can stand only once.

What was measured:
[1] = tested on: bone marrow stromal cells (BMSCs) from healthy persons; experiment: BMSC proliferation or inhibition, CCK8 method, healthy persons; type: cell-based, human; conditions: BMSCs of the healthy human and the AML patient after chemotherapy
Protocol: To explore the effect of TPA alone or combined rhG-CSF on bone marrow hematopoietic cells proliferation and colony formation ability which from patients of acute myeloid leukemia (AML) in the period of bone marrow suppression in vitro and to observe the effect of TPA on bone marrow stromal cells(BMSCs) proliferation or inhibition from patients of AML in the period of myelosuppression and the healthy persons.
• 1) Human bone marrow cells from the same AML patient after chemotherapy were cultured by methyl cellulose semi-solid culture medium. Groups: Blank, TPA (10 ng/ml), G-CSF (50 ng/ml), TPA (10 ng/ml)+GCSF (50 ng/ml). The experiments were repeated for 4 times. • 2) The stroma cells of bone marrow from the healthy human and the AML patient after chemotherapy were cultured by methyl cellulose semi-solid culture medium. Different TPA concentrations were added. Groups: Blank, TPA (0.1 ng/ml), TPA (1.0 ng/ml), TPA (5 ng/ml), TPA (10 ng/ml), TPA (20 ng/ml), TPA (30 ng/ml). • 3) Cultivation of BMSCs from healthy persons and patients of AML in the bone marrow suppression phase in vitro, added to TPA of different concentrations, 0.1 ng/ml, 1.0 ng/ml, 5 ng/ml, 10 ng/ml, 20 ng/ml, 30 ng/ml, and set up a control to detect cell proliferation or inhibition with CCK8 method. Results and Conclusion: • 1. […]

[2] = tested on: neutropenia and thrombocytopenia; experiment: Phase 2a study of phorbol ester in AML patients who receive induction chemotherapy; type: in vivo, human; conditions: AML patients after 3+7 induction; TPA 0.125 mg/m^2 IV with G-CSF 400 μg support; standard deviation of 5 days; usual 20±3 days
Protocol: This is a single-arm, open label study. Ten (10) patients receive standard induction chemotherapy with idarubicin (12 mg/m2) or daunorubicin (60 mg/m2) on days 1, 2, 3 and Ara-C continuous (100-200 mg/m2/day) infusion on days 1-7. On Day 8 or 24 hours after completion of all scheduled Ara-C infusion, TPA is started at 0.125 mg/m^2 IV every two days, in addition to G-CSF (400 μg subcutaneously daily) support until absolute neutrophil count (ANC) above 1000/μL for two consecutive days.”
This study is designed to examine the efficacy of TPA as a supportive care agent to enhance bone marrow recovery in AML patients after induction chemotherapy. Study Objectives: • 1. Evaluate the safety and tolerability of TPA in AML patients after induction chemotherapy • 2. Evaluate preliminary efficacy in shortening of the duration of neutropenia and thrombocytopenia in AML patients after induction chemotherapy • 3. […] AML should be classified by FAB classification, and all subtypes are allowed and recorded during enrollment, except patients with M3 or acute promyelocytic leukemia. • 3. […]
Evaluation of neutropenia and thrombocytopenia after induction chemotherapy is done by daily hematological tests, including complete blood count and differential count. […] The duration of neutropenia and thrombocytopenia is assessed separately and the ANC and platelet counts should be plotted in a diagram for each patient. […]

CCCCCCCCCCCCCC(=O)O[C@@H]1[C@@H](C)[C@@]2(O)[C@@H](C=C(CO)C[C@]3(O)C(=O)C(C)=C[C@@H]23)[C@@H]2C(C)(C)[C@]12OC(C)=O [TPA, 12-O-tetradecanoylphorbol-13-acetate]
optimal concentrations for growth of stroma cells of bone marrow (BMSCs) [1]: 5 ng/mL and 10 ng/mL
Duration of neutropenia or thrombocytopenia [2]: 12 days
